Source: publication PMC8228075, “In Vitro and In Silico Characterization of G-Protein Coupled Receptor (GPCR) Targets of Phlorofucofuroeckol-A and Dieckol” (Marine Drugs, 2021)
Several values for one entry are separate records, joined by “and”; a condition that tells them apart may be missing. Equal entries are not always repeated.

Columns and labels:
Assay type in all cases: cell-based
[1] = biological target: T1, Alpha-2A adrenergic receptor (hα2AAR) (Homo sapiens, UniProt P08913); assay: hα2AAR functional agonist assay (Ca2+ mobilization, rat basophil leukemia cells); settings: 100 µM; % of control response to 0.1 µM epinephrine bitartrate
T1 construct: host or cells: rat basophil leukemia cells
T1 sequence (P08913 1-465): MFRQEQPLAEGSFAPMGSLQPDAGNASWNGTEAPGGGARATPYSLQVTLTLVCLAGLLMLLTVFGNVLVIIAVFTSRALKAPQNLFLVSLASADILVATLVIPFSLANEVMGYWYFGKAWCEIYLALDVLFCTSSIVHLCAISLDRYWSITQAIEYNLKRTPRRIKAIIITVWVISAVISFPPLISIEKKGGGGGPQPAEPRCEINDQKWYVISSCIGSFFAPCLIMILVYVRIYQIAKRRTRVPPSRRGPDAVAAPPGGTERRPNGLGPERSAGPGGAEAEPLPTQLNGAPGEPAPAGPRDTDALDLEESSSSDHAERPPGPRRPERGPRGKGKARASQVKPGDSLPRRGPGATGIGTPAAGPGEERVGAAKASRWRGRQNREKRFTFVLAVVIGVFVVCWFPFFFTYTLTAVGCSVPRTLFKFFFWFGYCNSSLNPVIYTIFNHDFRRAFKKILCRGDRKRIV
Source text: (§1) The in-house assay protocol and experimental conditions are reported in our previous reports. The functional effect of dieckol and PFF-A was characterized based on their modulation effect on cytosolic Ca^2+ ion mobilization using a fluorimetric detection method or by measuring their effect on cAMP modulation using homogeneous time-resolved fluorescence (HTRF) detection.
(§2) The rat basophil leukemia cells were distributed in microplates at a density of 1.1 × 10^4 cells/well after suspending in a HBSS buffer (Invitrogen) containing 20 mM HEPES. Then, the fluorescent probe (Fluo8, AAT Bioquest) mixed with probenecid in HBSS buffer (Invitrogen) complemented with 20 mM Hepes (Millipore) (pH 7.4) was added into each well incubated for 60 min at 30 °C. Thereafter, the assay plates were positioned in a microplate reader (FlipR Tetra, Molecular Device) and we added test compounds, reference agonist/antagonist or HBSS buffer (basal control). Change in fluorescence intensity which varies proportionally to the free cytosolic Ca^2+ ion concentration was measured.

[2] = biological target: T1, Alpha-2A adrenergic receptor (hα2AAR); assay: hα2AAR functional antagonist assay (Ca2+ mobilization, rat basophil leukemia cells); settings: read-out: Antagonist Effect
Source text: as §1, §2

[3] = biological target: T2, δ-opioid receptor (hδ-OPR) (Homo sapiens, UniProt P41143); assay: hδ-OPR functional agonist assay (Ca2+ mobilization, rat basophil leukemia cells); settings: 100 µM; % of control response to 1 µM DPDPE
T2 construct: host or cells: rat basophil leukemia cells
T2 sequence (P41143 whole entry): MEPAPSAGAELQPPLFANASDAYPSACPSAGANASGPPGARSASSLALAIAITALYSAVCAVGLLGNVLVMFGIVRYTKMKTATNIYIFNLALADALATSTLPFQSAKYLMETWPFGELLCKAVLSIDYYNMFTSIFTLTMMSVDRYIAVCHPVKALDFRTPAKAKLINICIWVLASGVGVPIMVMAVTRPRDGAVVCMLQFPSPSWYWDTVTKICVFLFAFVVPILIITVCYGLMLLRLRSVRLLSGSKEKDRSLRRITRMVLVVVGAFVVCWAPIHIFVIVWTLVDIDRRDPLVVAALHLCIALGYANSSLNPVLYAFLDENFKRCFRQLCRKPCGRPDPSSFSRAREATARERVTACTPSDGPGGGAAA
Source text: as §1
Thereafter, a mixture of fluorescent probe (Fluo8, AAT Bioquest) and probenecid in HBSS buffer (Invitrogen) complemented with 20 mM Hepes (Millipore) (pH 7.4) was added and plates were incubated for 60 min at 30 °C. Then, the assay plates were positioned in a FlipR Tetra microplate reader (Molecular Device, San Jose, CA, USA) for the addition of the test compound, reference agonist/antagonist, or HBSS buffer (basal control). Change in fluorescence intensity that varies proportionally to the free cytosolic Ca^2+ ion concentration was measured.

[4] = biological target: T3, Cannabinoid receptor 1 (CB1R) (Homo sapiens, UniProt P21554); assay: hCB1R functional agonist assay (cAMP, HTRF, CHO cells); settings: for Agonist Effect: % of control response to 10 nM CP 55940
T3 construct: host or cells: CHO cells
T3 sequence (P21554 whole entry): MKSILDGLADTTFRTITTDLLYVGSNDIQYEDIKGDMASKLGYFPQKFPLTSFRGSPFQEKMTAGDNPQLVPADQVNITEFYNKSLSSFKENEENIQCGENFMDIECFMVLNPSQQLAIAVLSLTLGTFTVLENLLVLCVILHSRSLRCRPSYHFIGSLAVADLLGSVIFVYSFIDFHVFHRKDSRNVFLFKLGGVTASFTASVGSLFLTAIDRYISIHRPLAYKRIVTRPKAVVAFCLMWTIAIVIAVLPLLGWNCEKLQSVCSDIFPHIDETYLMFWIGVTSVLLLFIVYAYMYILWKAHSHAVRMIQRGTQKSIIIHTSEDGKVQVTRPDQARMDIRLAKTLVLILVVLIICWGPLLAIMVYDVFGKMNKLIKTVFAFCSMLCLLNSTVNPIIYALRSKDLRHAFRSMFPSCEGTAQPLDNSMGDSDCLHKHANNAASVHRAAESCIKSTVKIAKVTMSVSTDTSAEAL
Experimental: as §1
(§3) Functional activity of phlorotannins over hA2AR, hα2CAR, hCB1R, GLP-1R, and h5-HT1BR was determined by measuring their effects on cAMP production by the HTRF detection method using transected cells expressing human cloned receptors.
The transfected CHO cells were suspended in HBSS buffer (Invitrogen) complemented with 20 mM HEPES (pH 7.4). […] After 30 min of incubation at 37 °C, the cells were lysed and the fluorescence acceptor (D2-labeled cAMP) and fluorescence donor (anti-cAMP antibody labeled with europium cryptate) were added.

[5] = biological target: T4, Glucagon-like peptide-1 receptor (GLP-1) (Mus musculus, UniProt O35659); assay: GLP-1R functional antagonist assay (cAMP, HTRF, βTC6 cells); settings: for Antagonist Effect: % inhibition of control response to 0.3 nM GLP-1(7–37); for IC50: antagonist effect, mean ± SD, n = 3; for inhibition at 12.5 µM / inhibition at 25 µM / inhibition at 100 µM: read-out: Antagonist Effect
T4 construct: mouse GLP-1 receptor-expressed βTC6 cells; host or cells: βTC6 cells
T4 sequence (O35659 22-463): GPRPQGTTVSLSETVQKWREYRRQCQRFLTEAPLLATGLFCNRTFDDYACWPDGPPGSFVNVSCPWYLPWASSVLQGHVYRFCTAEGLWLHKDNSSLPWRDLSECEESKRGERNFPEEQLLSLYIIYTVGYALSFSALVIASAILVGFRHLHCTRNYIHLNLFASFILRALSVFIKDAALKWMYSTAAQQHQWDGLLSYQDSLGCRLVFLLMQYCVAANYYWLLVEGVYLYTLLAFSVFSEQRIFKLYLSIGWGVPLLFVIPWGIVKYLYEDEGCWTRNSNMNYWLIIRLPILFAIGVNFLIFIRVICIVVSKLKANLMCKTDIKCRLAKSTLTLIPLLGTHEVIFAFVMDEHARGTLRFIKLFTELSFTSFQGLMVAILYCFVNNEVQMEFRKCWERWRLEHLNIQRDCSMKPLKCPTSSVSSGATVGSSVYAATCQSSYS
Experimental: as §1, §3
The HBSS buffer (Invitrogen) complemented with 20 mM HEPES (pH 7.4) and 500 µM IBMX was used to suspend and distribute the βTC6 cells at a density of 1.5x10^4 cells/well. The plate was then incubated for 10 min at RT in the presence of HBSS (basal and stimulated control), the test compound, or the reference agonist and antagonist. […] Following incubation, the cells were lysed and the fluorescence acceptor (D2-labeled cAMP) and fluorescence donor (anti-cAMP antibody labeled with europium cryptate) were added.

h5-HT1BR = h5-HT1BR (Homo sapiens, UniProt P28222); assay: h5-HT1BR functional antagonist assay (cAMP, HTRF, Hela cells); settings: HeLa, read-out: Antagonist Effect
Sequence of h5-HT1BR (P28222 whole entry): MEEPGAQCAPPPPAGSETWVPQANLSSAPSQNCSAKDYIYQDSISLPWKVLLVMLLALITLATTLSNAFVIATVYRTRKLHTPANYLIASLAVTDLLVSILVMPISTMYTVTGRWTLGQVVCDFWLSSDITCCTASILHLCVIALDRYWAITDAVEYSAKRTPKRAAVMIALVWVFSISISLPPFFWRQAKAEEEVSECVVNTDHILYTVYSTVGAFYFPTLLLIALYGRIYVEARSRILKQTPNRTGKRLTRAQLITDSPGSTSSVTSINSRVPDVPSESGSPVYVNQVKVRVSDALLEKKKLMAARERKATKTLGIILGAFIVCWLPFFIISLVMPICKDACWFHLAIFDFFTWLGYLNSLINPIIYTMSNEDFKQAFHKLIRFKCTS
Experimental: as §1, §3
Concisely, a plasmid containing the GPCR gene of interest (5-HT1B) was transfected into Hela cells. The resulting stable transfectants were suspended in HBSS buffer (Invitrogen, Carlsbad, CA, USA) containing 20 mM HEPES (pH 7.4), […], 1 mg/mL glucose, and 500 μM IBMX and distributed in microplates at a density of 2 × 10^4 cells/well. […] Then, the cells were lysed and a fluorescence acceptor (D2-labeled cAMP) and fluorescence donor (anti-cAMP antibody with europium cryptate) were added following 60 min incubation at RT.

| Compound | Agonist Effect [1] [%] | inhibition at 100 µM [2] [%] | Agonist Effect [3] [%] | Agonist Effect ([4]; 100 µM) [%] | Antagonist Effect ([5]; 25 µM) [%] | Antagonist Effect ([5]; 50 µM) [%] | Antagonist Effect ([5]; 100 µM) [%] | IC50 [5] [µM] | inhibition at 12.5 µM [5] [%] | inhibition at 25 µM [5] [%] | inhibition at 100 µM [5] [%] | inhibition at 100 µM (h5-HT1BR) [%] | inhibition at 200 µM (h5-HT1BR) [%] | Agonist Effect ([4]; 12.5 µM) | Agonist Effect ([4]; 25 µM) | Agonist Effect ([4]; 50 µM) | EC50 ([4]; agonist effect, mean ± SD, n = 3) [µM] | potency relative to dieckol ([5]; from IC50 values, GLP-1R antagonist effect) |
| --- | --- | --- | --- | --- | --- | --- | --- | --- | --- | --- | --- | --- | --- | --- | --- | --- | --- | --- |
| Oc1cc(O)cc(Oc2c(O)cc(O)c3c2Oc2c(O)cc(Oc4c(O)cc(Oc5c(O)cc(O)c6c5Oc5c(O)cc(O)cc5O6)cc4O)cc2O3)c1 [Dieckol, dieckol] | 13.4 ± 19.87 | 46.1 ± 20.1 | −5.7 ± 0.14 | −23.3 ± 12.09 | 21.23 ± 7.31 | 53.80 ± 3.12 | 101.0 ± 8.20 | 47.2 ± 2.46 | 17.9 ± 6.32 | 21.2 | 101 ± 8.2 | -7.3 ± 3.96 | -8.1 ± 0.85 |  |  |  |  |  |
| Oc1cc(O)cc(Oc2c(O)cc(O)c3c2Oc2c(O)cc4oc5c(Oc6cc(O)cc(O)c6)c(O)cc(O)c5c4c2O3)c1 [PFF-A, phlorofucofuroeckol-A] | −0.5 ± 0.85 | 20.9 ± 1.77 | 14.7 ± 7.35 | 113.8 ± 3.68 | 57.37 ± 1.15 | 83.87 ± 2.03 |  | 21.6 ± 2.16 | 25.6 ± 13.1 | 57.4 | 106 ± 1.27 | -18.5 ± 2.69 | -35.5 ± 4.38 | 46.7% and 46.7 ± 6.22% | 80.3% and 80.3 ± 4.10% | 96.45% and 96.45 ± 5.02% | 13.4 ± 2.03 | two-fold higher |
